# US5643907A, “Pharmaceutical composition containing 5-morpholinomethyl-3-(4-chlorobenzylideneamine)-2-oxazolidinone and its use for the treatment of CNS disorders” (priority 1993, dated 1997)
# Where a name gives a salt, the structure may show the parent alone.
# What was measured:
# rats behaviour = assay: Influence on the rats behaviour in "despair test" (Porsolt), immobility period; format: in vivo, rat; settings: for The immobility period, % of control: twice
# Method: 1) The influence on the rats behaviour in "despair test".
# The rats were placed separately in upright, metallic cylindrical containers, 60 cm high and 18 cm in diameter, containing 15 centimeters of water, at a temperature of 25° C. […] After 24 hours the rats were dived in water again and for 5 minutes the complete immobility period was measured. The examined preparation (containing 5-morpholinomethyl-3-(4-chlorobenzylideneamine)-2-oxazolidinone hydrochloride) or imipramine (IMI) was administered per os twice: at 24 hours and one hour before the beginning of the observation.
# [1] = test system: mice premedicated with pargyline; assay: Intensification of L-dopa effects in mice premedicated with pargyline; format: in vivo, mouse; settings: for Reaction of mice according to score: L-dopa 200 mg/kg i.p. after pargyline, control 1-2
# Method: 3) The intensification of L-dopa effects in mice premedicated with pargyline.
# Three hours after the oral administration of pargyline in the dosage of 40 mg/kg, there was applied orally either the examined preparation or IMI, followed after one hour by L-dopa administered intraperitoneally in the dosage of 200 mg/kg. The behaviour of the mice was evaluated according to the following 5-level score:
# 1 - piloerection, Straub's tail, exophtalmos of eyes, minute salivating, irritability.
# 2 - as above + translocations, single jumps.
# 3 - as above + bigger incitement of mobility, frequent jumps, climbing, single squeaks.
# 4 - as above + great incitement of mobility, aggresion, fights.
# 5 - as above + maximum incitement of mobility and aggresion
# beta-adrenergic receptor = assay: Influence of chronic administration on concentration of beta-adrenergic cerebral receptors in vivo (3H-dihydroalprenolol bonding to cerebral cortex membranes); parameters: species or system rat
# Method: Rats were administered the examined preparation in the form of intraperitoneally injection and the dosage of 200 mg/kg twice daily for six weeks. In the same empirical system IMI was examined in the dosage of 10 mg/kg. The animals were killed 24 hours after the last injection and their cerebral cortexes were skeletonized.
# The population of the beta-adrenergic receptor was characterised by the examination of the parameters of the ^3 H-dihydroalprenolol (^3 H-DHA) bonding to the membranes (fractiom P2) of the cerebral cortex. The tissue was homogenised in 20 volumes of the 50 mM buffer TRIS-HCl, pH 7,6 in the Polytron disintegrator (position 4,155) and centrifuged at 1000 g for 10 minutes. The supernatant was decanted and again centrifuged at 25000 for 20 minutes. The operations were conducted in the temperature of 0°-4° C. The precipitate, after the second centrifugation, decanting and removing the supernatant, was kept in the temperature of -18° C. until the time of incubation (no longer than 48 hours). The final fraction P2 was obtained by the subsequent process of the sediment homogenisation in such a volume of 50 mM buffer TRIS-HCl, pH 7,6, that the final concentration of protein amounted to 1,5 mg/ml.
# The incubation mixture, containing 450 μl of the fraction P2 suspension, 50 μl of the ^3 H-DHA solution (6 different solutions; the final concentrations in the mixture […]) and 50 μl of buffer or propranolol solution (the final concentration in the sample […]) was incubated for 30 minutes in the temperature of 25° C. The incubation was finished by filtrating the suspension through filters made of glass fibres. The filters were twice rinsed with 5 ml of cold (0° C.) buffer TRIS-HCl, pH 7,6, and placed in scintillation minivessels, to which Bray's liquid was added. The radioactivity was measured by the Packard scintillation counter, model B329 with the efficiency of 36-37%.
# The specific bonding was defined as the radioactivity difference between the samples incubated in the absence of propranolol (complete bonding) and in the presence of 10 μM of propranolol (blank). The data from the counter […] were recalculated individually into the decay frequence […], calculating it from the individual efficiency of each sample, received from the relation of impulses in the canals A and B. Bmax value and the constant of dissociation KD was calculated from the Scatchard diagrams, which were rectilinear.
# [2] = test system: reserpine pretreated mice; assay: Intensification of L-Dopa effects in reserpine pretreated mice; format: in vivo, mouse
# Method: 2) The intensification of L-Dopa effects in reserpine pretreated mice.
# The examined preparation was administered to mice p.o. in the dosages of 40 and 200 mg/kg 17 hours after reserpine in the dosage of 2,5 mg/kg had been administered intraperitoneally. After one hour L-dopa was injected in the dosage of 300 mg/kg. The intensification of L-dopa anti-reserpine action was evaluated according to the following parameters of the animals behaviour: mobility, irritability, ptosis and body temperature. According to the same empirical system IMI was examined in the dosages of 8 and 40 mg/kg.
# uptake of noradrenaline = assay: Effect on the uptake of noradrenaline in vivo (protection from 6-OHDA); parameters: species or system rat; settings: for Concentration of noradrenaline in the brain X ± SEM: control 205 ± 10, 5
# Method: The point of reference for measuring the inhibiting effect on the uptake of noradrenaline was the protection from the effect of 6-hydroxydopamine (6-OHDA), which was administered intraventricularly. Rats were applied intraventricularly 250 μg of 6-OHDA in the volume of 20 μl of 0,9% solution of […] and 0,1% solution of ascorbic acid. […] The animals were decapitated 7 days after and the level of noradrenaline in the whole brain was measured by the division on the Sephadex G-10 column and fluorimetric assay following oxidation.
# [3] = test system: mice in the conditions of hypoxia; assay: Effect on the time of survival in the conditions of hypoxia; format: in vivo, mouse; settings: for The number of mice surviving in the conditions of hypoxia: surviving/complete number
# Method: The examined preparation was applied i.o. in the dosages 5, 10, 50, 75, 100 mg/kg 60 minutes before the beginning of the experiment. The experiment lasted until 0-3 animals survived in the control group. Subsequently oxygen was let in and finally normal air. The number of animals which survived in the control group was compared to the number of animals in the group administered the examined preparation. The number of surviving mice is presented in relation to the complete number of examined mice.
# uptake of serotonin [4] = settings: 200 mg/kg before p-CA; control 353 ± 117, 7
# uptake of serotonin [5] = assay: Effect on the uptake of serotonin in vivo (protection from p-chloramphetamine)
# [6] = test system: process of learning and memorising; assay: Effect on the process of learning and memorising (conditioned jump on a bar); format: in vivo, rat
# [7] = 10 mg/kg chronic administration, six weeks
# [8] = 100 mg/kg, controls: Examined 9/60 (p <0, 01), Piracetam 7/40 (n.d.), Pyritinol 8/60 (p <0, 01)
# [9] = mice premedicated with pargyline
# [10] = 200 mg/kg daily dosage, chronic
compound,measurement,setting,value
"CN(C)CCCN1c2ccccc2CCc2ccccc21 [IMI, imipramine, reference compound]","The immobility period, % of control",rats behaviour; 20 mg/kg p.o.,88%
same,Reaction of mice according to score,[1]; 4 mg/kg p.o.,4
same,Reaction of mice according to score,[1]; 40 mg/kg p.o.,3-4
same,"Bmax, % of control",beta-adrenergic receptor; [7],60%
same,"KD, % of control",beta-adrenergic receptor; [7],129%
same,Temper. 60' (body temperature),[2]; 8 mg/kg + L-Dopa 300 mg/kg after reserpine,"34,3"
same,"noradrenaline, % in relation to the group after chemosympathectomy",uptake of noradrenaline; 20 mg/kg before 6-OHDA,188%
same,Concentration of noradrenaline in the brain X ± SEM,uptake of noradrenaline; 20 mg/kg before 6-OHDA,"179 ± 113, 5 mg/kg tissue"
"NC(=O)CN1CCCC1=O [Piracetam, piracetam, reference compound]",The number of mice surviving in the conditions of hypoxia,[3]; [8],6/40
same,The number of mice surviving in the conditions of hypoxia,"[3]; 300 mg/kg, control 6/60, p <0, 05",18/60
"O=C1OC(CN2CCOCC2)CN1N=Cc1ccc(Cl)cc1 (centres unmarked) [Examined preparation, 5-morpholinomethyl-3-(4-chlorobenzylideneamine)-2-oxazolidinone hydrochloride]",Concentration of serotonin in the brain X ± SEM,uptake of serotonin [4],"367 ± 30, 1 mg/kg tissue"
same,The number of mice surviving in the conditions of hypoxia,"[3]; 5 mg/kg, control 7/40, p n.d.",5/40
same,The number of mice surviving in the conditions of hypoxia,"[3]; 10 mg/kg, control 5/40, p n.d.",6/40
same,The number of mice surviving in the conditions of hypoxia,"[3]; 50 mg/kg, control 9/60, p <0, 01",23/60
same,The number of mice surviving in the conditions of hypoxia,"[3]; 75 mg/kg, control 9/60, p <0, 01",28/60
same,The number of mice surviving in the conditions of hypoxia,[3]; [8],47/60
same,time of mice survival in the conditions of hypoxia,[3]; in comparison to piracetam and pyritinol,prolongs the time of mice survival in the conditions of hypoxia
same,"The immobility period, % of control",rats behaviour; 40 mg/kg p.o.,89%
same,effect on immobility compared with IMI (20 mg/kg),rats behaviour; 200 mg/kg,equals approximately to the effect of IMI (20 mg/kg)
same,shortened the rats' immobility period in relation to the control group,rats behaviour; 200 mg/kg,18%
same,"The immobility period, % of control",rats behaviour; 200 mg/kg p.o.,82%
same,Reaction of mice according to score,[1]; 10 mg/kg p.o.,5
same,Reaction of mice according to score,[1]; 20 mg/kg p.o.,5
same,Reaction of mice according to score,[1]; 40 mg/kg p.o.,5
same,Reaction of mice according to score,[1]; 200 mg/kg p.o.,3-4
same,mobility and emotion incitement,"[1]; after the dosages of 10, 20 and 40 mg/kg",strongest mobility and emotion incitement
same,effectiveness compared with IMI,[1]; [9],stronger effectiveness than IMI
same,intensification of L-dopa effects,[1]; [9],very strong intensification of L-dopa effects
same,"Bmax, % of control","beta-adrenergic receptor; 40 mg/kg daily dosage, chronic",67%
same,"KD, % of control","beta-adrenergic receptor; 40 mg/kg daily dosage, chronic",63%
same,"Bmax, % of control",beta-adrenergic receptor; [10],72%
same,"KD, % of control",beta-adrenergic receptor; [10],68%
same,"effect on the concentration of receptors, compared with imipramine","beta-adrenergic receptor; both dosages, chronic",did not differ considerably
same,constant of dissociation value KD / beta-adrenergic receptor affinity,"beta-adrenergic receptor; both dosages, chronic, as distinct from imipramine",statistically considerable decline of the constant of dissociation value KD and consequently the increase of the beta-adrenergic receptor affinity
same,"irritability and incitement, second phase","[2]; 200 mg/kg, after 90 minutes","there appeared irritability and big incitement, which lasted over an hour"
same,body posture (righting) reflex,"[2]; 200 mg/kg, first hour after the application",loss of body posture (righting) reflex
same,effectiveness of smaller versus bigger dosage,[2]; 40 vs 200 mg/kg,A smaller dosage proved to be more effective than a bigger one
same,"effect on ptosis, hypothermy, mobility and irritability",[2]; reserpine pretreated mice + L-dopa,reduced ptosis and hypothermy and raised the animals' mobility and irritability
same,intensification of the behavioural effects of L-dopa,"[2]; reserpine pretreated mice, compared with IMI",intensified the behavioural effects of L-dopa action in reserpine pretreated mice in the same way as IMI
same,"serotonin, % in relation to the group after p-chloramphetamine",uptake of serotonin [5]; 40 mg/kg before p-CA,107%
same,"serotonin, % in relation to the group after p-chloramphetamine",uptake of serotonin [5]; 200 mg/kg before p-CA,172%
same,prevention of the p-chloramphetamine effect,uptake of serotonin [5]; high dosage,prevented the p-chloramphetamine effect completely
same,effect on the washing-out action of p-chloramphetamine,uptake of serotonin [5]; low dosage,did not produce any effects on the washing-out action of p-chloramphetamine
same,"noradrenaline, % in relation to the group after chemosympathectomy",uptake of noradrenaline; 40 (mg/kg) before 6-OHDA,92%
same,"noradrenaline, % in relation to the group after chemosympathectomy",uptake of noradrenaline; 200 (mg/kg) before 6-OHDA,155%
same,Concentration of noradrenaline in the brain X ± SEM,uptake of noradrenaline; 200 (mg/kg) before 6-OHDA,"148 ± 24, 9 mg/kg tissue"
same,inhibiting the uptake of noradrenaline,uptake of noradrenaline; high dosages,proves effective in inhibiting the uptake of noradrenaline
same,inhibition of the effect of 6-OHDA compared with IMI,uptake of noradrenaline; higher dosage,inhibits it almost as effectively as IMI
same,prevention of the effect of 6-OHDA,uptake of noradrenaline; low dosage,does not prevent the effect of 6-OHDA completely
same,process of learning,[6]; 5 mg/kg i.p. everyday,accelerates the process of learning
same,effect on learning compared with piracetam and pyritinol,"[6]; 5 mg/kg i.p. vs piracetam 100 mg/kg, pyritinol 100 mg/kg","weaker than the effect of piracetam, but stronger than the effect of pyritinol"
"Cc1ncc(CSSCc2cnc(C)c(O)c2CO)c(CO)c1O [Pyritinol, pyritinol, reference compound]",The number of mice surviving in the conditions of hypoxia,[3]; [8],30/60
"CC(N)Cc1ccc(Cl)cc1 (centres unmarked) [p-CA, p-chloramphetamine, reference compound]","serotonin, % in relation to the group after p-chloramphetamine","uptake of serotonin [5]; p-CA alone (reference group), control 169",100%
same,decline of the cerebral serotonine concentration,uptake of serotonin [5]; p-chloramphetamine alone,40%
"NCCc1cc(O)c(O)cc1O [6-OHDA, 6-hydroxydopamine, reference compound]",decline of the noradrenalin content in the cerebrum,uptake of noradrenaline; 6-OHDA administered intraventricularly,over 50%
same,"noradrenaline, % in relation to the group after chemosympathectomy","uptake of noradrenaline; 6-OHDA alone (reference group), control 216",100%
